In general, EC50 refers to the midpoint of the concentration-response curve. The low end stands for an effect from little substance, the high end for a need for much substance.

Where only a bound is given, the exact number is not on record here.

One assay concerns the target T1, Regulator of G-protein signaling 16 (Homo sapiens, UniProt O15492).
T1 sequence (O15492 whole entry): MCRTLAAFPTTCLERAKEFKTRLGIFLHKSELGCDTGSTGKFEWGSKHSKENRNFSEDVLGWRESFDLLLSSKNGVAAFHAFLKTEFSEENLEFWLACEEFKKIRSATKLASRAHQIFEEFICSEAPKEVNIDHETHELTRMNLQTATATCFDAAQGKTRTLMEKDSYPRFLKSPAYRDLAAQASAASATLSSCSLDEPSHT
The assay is described as follows: RGS16-Galphao binding modulators, SAR follow-up, biochemical, multiplexed bead flow cytometry, SAR compounds (AID 2298).
Settings: not given
For orientation: A flow cytometer gives signals particle by particle.
`CN1CCN(C2=C(Cl)C(=O)C(c3cnc(N4CCCCC4)s3)=C(Cl)C2=O)CC1`: the EC50 is 27 nM.

As for `CCN=c1scc(C)n1N=Cc1ccc(O)c(O)c1O`, the midpoint of the response, the EC50, lay at 1050 nM.

In turn, `CCN(CC)S(=O)(=O)c1cccc(C(=O)NN=Cc2ccc(O)c(O)c2O)c1` gave a 50% effective concentration (EC50) of 590 nM.

`Cc1[nH]n(-c2ccccc2)c(=S)c1C=NCCCN=Cc1c(C)[nH]n(-c2ccccc2)c1=S` gave an EC50 of 405 nM.

As for `Cc1cccc(N2CCN(C(=O)COc3nsc4nc(C)cc(C)c34)CC2C)c1` (configuration not stated), a half-maximal response (EC50) required 1430 nM.

Molecule `Cc1cccc(N2CCN(C(=O)Cn3ccc4nc(C)cc(C)c4c3=O)CC2C)c1` (configuration not stated) [2,4-dimethyl-6-[2-[3-methyl-4-(3-methylphenyl)piperazin-1-yl]-2-oxidanylidene-ethyl]-1,6-naphthyridin-5-one] gave a concentration giving a half-maximal response (EC50) greater than 30000 nM.

On to `Cc1cc(C)c2c(=O)n(CC(=O)N3CCN(c4ccccc4)CC3)ccc2n1` [2,4-dimethyl-6-[2-oxidanylidene-2-(4-phenylpiperazin-1-yl)ethyl]-1,6-naphthyridin-5-one], for which it took 18 nM to reach a half-maximal effect (EC50).

Turning to `Cc1cc(C)c2c(n1)CCN(CC(=O)N1CCN(c3ccccc3)CC1)C2=O` [2,4-dimethyl-6-[2-oxidanylidene-2-(4-phenylpiperazin-1-yl)ethyl]-7,8-dihydro-1,6-naphthyridin-5-one], the EC50 is greater than 30000 nM.

In turn, `O=c1c2ccccc2sn1-c1ccc(S(=O)(=O)N2CCCC2)cc1` [2-(4-pyrrolidin-1-ylsulfonylphenyl)-1,2-benzothiazol-3-one] gave an EC50 of 27 nM.

For `Cc1cccc(N2CCN(C(=O)Cn3sc4nc(C)cc(C)c4c3=O)CC2C)c1` (configuration not stated) [2-[2-keto-2-[3-methyl-4-(m-tolyl)piperazino]ethyl]-4,6-dimethyl-isothiazolo[5,4-b]pyridin-3-one], the midpoint of the response, the EC50, lay at 110 nM.

Take `Cc1cccc(N2CCN(C(=O)COc3noc4nc(C)cc(C)c34)CC2C)c1` (configuration not stated) [2-[(4,6-dimethyl-[1,2]oxazolo[5,4-b]pyridin-3-yl)oxy]-1-[3-methyl-4-(3-methylphenyl)piperazin-1-yl]ethanone]: the 50% effective concentration (EC50) was greater than 30000 nM.

In turn, `O=c1c2ccccc2sn1-c1ccccc1` [2-phenyl-1,2-benzothiazol-3-one] gave an EC50 greater than 30000 nM.

Molecule `CCN(CC)S(=O)(=O)c1cccc(-c2n[nH]c(=S)n2N=Cc2ccc(C(=O)OC)cc2)c1` [4-[(E)-[3-[3-(diethylsulfamoyl)phenyl]-5-thioxo-1H-1,2,4-triazol-4-yl]iminomethyl]benzoic acid methyl ester] showed an EC50 of 940 nM.

`NS(=O)(=O)c1ccc(N=NCc2ccc(O)c(O)c2O)c([N+](=O)[O-])c1` [4-[[(E)-(2,3-dihydroxy-4-oxo-1-cyclohexa-2,5-dienylidene)methyl]hydrazo]-3-nitrobenzenesulfonamide] gave an EC50 of 29 nM.

Turning to `CN=c1scc(C)n1N=Cc1ccc(O)c(O)c1O` [(4E)-2,3-dihydroxy-4-[[(4-methyl-2-methylimino-1,3-thiazol-3-yl)amino]methylidene]cyclohexa-2,5-dien-1-one], the 50% effective concentration (EC50) was 511 nM.

As to `Cc1[nH]n(-c2ccccc2)c(=S)c1/C=N/c1cccc([N+](=O)[O-])c1` [(4E)-5-methyl-4-[(3-nitroanilino)methylene]-2-phenyl-2-pyrazoline-3-thione], the midpoint of the response, the EC50, lay at 46 nM.

With `Cc1cccc(N2CCN(C(=O)CN3CCc4nc(C)cc(C)c4C3=O)CC2C)c1` (configuration not stated) [KUC103675N], the EC50 is greater than 30000 nM.

For the molecule `CC(=O)OCCCNc1cc(Sc2nc3ccccc3s2)c2nonc2c1[N+](=O)[O-]` [MLS000521052], the half-maximal effective concentration (EC50) is 272 nM.

In turn, `Cc1cc(Cl)ccc1/N=c1/ssnc1Cl` [MLS000539990] returned a 50% effective concentration (EC50) of 53 nM. This EC50 is about 5.1-fold lower than that of the molecule before.

`O=C1C(Cl)=C(N2CCCCC2)C(=O)C(Cl)=C1c1cnc(N2CCCCC2)s1` [MLS000550549]: the midpoint of the response, the EC50, lay at 121 nM.

For `CCC(=O)NC(c1ccc(C)cc1)c1cc([N+](=O)[O-])c2cccnc2c1O` (configuration not stated) [MLS000553854], a half-maximal effect (EC50) was put at 5220 nM.

Consider `COc1ccc(C2=CC(=O)C=CC2=O)cc1` [MLS001029846], for which the EC50 was determined as 151 nM.

Regarding `O=C(COc1ccccc1C(=O)NN=Cc1ccc(O)c(O)c1)NN=Cc1ccc(O)c(O)c1` [N''-[(Z)-(3-hydroxy-4-oxo-1-cyclohexa-2,5-dienylidene)methyl]-2-[2-[[(Z)-(3-hydroxy-4-oxo-1-cyclohexa-2,5-dienylidene)methyl]hydrazo]-2-oxoethoxy]benzohydrazide], the EC50 was 116 nM.

`CC1(C)OC(=O)C(=Cc2ccc(-c3ccc(S(N)(=O)=O)cc3)o2)C(=O)O1` [SMR000273939]: the EC50 is 3510 nM.

The molecule `O=C(Cc1csc(N2CCOCC2)n1)NN=Cc1ccc(O)c(O)c1O` [SMR000369439] gave an EC50 of 822 nM.

As to `Nc1c(C(=O)NCC2CCCO2)sc2nc3c(c(-c4ccco4)c12)CC/C3=C/c1ccco1` (configuration not stated) [UNM-0000305796], the EC50 was greater than 30000 nM.

Staying with this assay, now noted: inactive by the depositor's call.
`CCOc1ccccc1-c1c2cc(O)c(=O)cc-2oc2cc(O)c(O)cc12` [MLS000578271]: the EC50 was determined as 3680 nM.

Values taken from BindingDB's records for doi:10.7270/Q2VH5M8G (Nmmlsc, 2010).
